Patent US20030114460A1, “Pharmaceutical conjugates with enhanced pharmacokinetic characteristics” (priority 2001, published 2003)
Read-outs that look alike come from different tables or passages of the source.

Columns and labels:
[1] = tested on: CMV retinitis; assay: Patient case, CMV retinitis (Example 5); type: in vivo, human
Text: A person complains of gradual onset of floaters and progressive reduction of vision in both eyes, but without pain. The patient has been HIV+ for 7 years, and was recently hospitalized for Cryptococcal pneumonia. The patient is taking AZT, ddI, indinivir, and has been for the past three years, with moderate compliance. […] Granular hemorrhagic areas are noted throughout the retina, with a “brushfire” appearance. […] These findings are all evidence of CMV retinitis, secondary to AIDS. Ganciclovir-conjugate 0.5% 1 drop four times daily in both eyes is prescribed. At a two-week follow-up examination, the patient states full compliance with the treatment protocol. The patient also states an improvement in vision with a reduced number of floaters. […] The patient is advised to continue the ganciclovir-conjugate drops indefinitely.

[2] = type: in vivo, human
Method: A person receives a routine eye examination. […] With their habitual spectacle correction, their best corrected visual acuities are 20/20 in both eyes. Their pupils are found to be round, equally reactive to light, and without any presence of afferent pupillary defect. […] Their intraocular pressures are measured at 32 mmHg in both eyes (with the Goldmann tonometer at 3 pm). […] A Humphrey C-20 automated threshold visual field test indicates the presence of generalized depression in both eyes. […] Their blood pressure is 125/85 and their pulse rate is 60 beats/min. Because of the enlarged cup to disc ratio, elevated intraocular pressures, and the generalized depression of the threshold visual fields, they are diagnosed with open angle glaucoma. Timolol 0.5% 1 drop two times daily in both eyes is prescribed for two weeks. The patient is to return in two weeks for a follow-up evaluation. At the follow-up evaluation, they state that they have been compliant with the prescribed therapy. Their intraocular pressure is measured at 28 mmHg at 1 pm with the Goldmann tonometer. Their blood pressure is 118/86 and their pulse rate is 65 beats/min. Bromonidine-conjugate 0.2% 1 drop two times daily in both eyes is added to the treatment regimen. After another two weeks, the patient has a follow-up evaluation, during which, the patient's intraocular pressure measures 18 mmHg in the right eye, and 17 mmHg in the left eye. Their blood pressure and pulse rate remain normal. The patient is re-evaluated every 3 months with the continuation of combination therapy.

[3] = Aqueous solubility of memantine HCl; type: physicochemical; conditions: HCl salt, pH 6.5 aqueous solution
Text: (§1) For example, memantine may be employed as an EEC in accordance with this invention. […] The memantine HCl apparent octanol/water partition coefficient is Log 3.0. The high apparent partition and high solubility appear contradictory. However, the charged amine of memantine HCl (pKa 10.27) results in the high solubility while the free base results in the high partitioning of memantine into octanol. As the HCl salt and free base are in equilibrium, permeation of the free base through biologic tissues results. The impact of a high solubility and a high partition coefficient of the free base are a high bioavailability.

[4] = Apparent octanol/water partition coefficient; type: physicochemical; conditions: memantine HCl, printed as Log 3.0
Text: as §1

[5] = pKa of the charged amine; type: physicochemical; conditions: charged amine of memantine HCl
Text: as §1

[6] = Autoradiography of the eye after topical ophthalmic instillation; type: in vivo, albino and pigmented rabbits
Method: General disposition of topical ophthalmic 1-amino-3,5-dimethyladamantane hydrochloride (memantine) instillation was assessed by autoradiography. Briefly, albino and pigmented rabbits were dosed via topical ophthalmic instillation with a 0.74% aqueous isotonic memantine solution, pH 7.4. After dosing autoradiographic sections of the eye were acquired at 0.25, 0.5, 1, and 2 and 24 hours post dosing. […] Further, a qualitative assessment of residence time could be made from the data.

[7] = Ocular tissue concentrations after oral and topical dosing; type: in vivo, Rabbits; conditions: rabbit, retina, read-out: retinal memantine concentration
Method: Ocular tissue concentrations were also determined after oral and topical dosing. Rabbits were dosed topically with 35 μl of a 0.1% aqueous solution of memantine twice a day for 7 days. Another subset of rabbits was dosed orally with 2 mg/kg memantine for seven days. At the end of the dosing period ocular tissue concentrations were quantified. The retinal memantine concentrations from topical and oral dosing were essentially equivalent (107 ng/ml and 108 ng/ml, respectively).

[8] = In-vitro melanin binding
[9] = tested on: fungal corneal ulcer; assay: Patient case, fungal corneal ulcer (Example 3); type: in vivo, human; conditions: next day; 5% natamycin drops each hour (day) / every two hours (night) with 5% homatropine four times each day
Method: A […] […] […] comes to a clinic complaining of severe pain, redness, tearing, and photophobia in […] left eye. One day before, the patient was hit by a tree twig while playing football in the park. Severe conjunctival hyperemia with clear discharge is observed. […] Intraocular pressure is also elevated (20 mmHg) by Goldman tonometry. A fungal corneal ulcer is diagnosed. The patient is administered 5% natamycin drops each hour during the day and every two hours at night and 5% homatropine four times each day for […] left eye. […] The patient is experiencing blurriness in the left eye. […] The extent of Na Fl stain is also enlarged. The patient is given 0.15% amphotericin B drops and 5% ketoconazole-conjugate drops once daily in both eyes. […] 5% natamycin drops every two hours are administered around the clock, as well as 5% homatropine two times daily, and 5% ketoconazole-conjugate drops once daily.

CC12CC3CC(N)(C1)CC(C(=O)OCC(CO)OCn1cnc4c(=O)[nH]c(N)nc41)(C3)C2 (stereo not shown) [Ganciclovir-conjugate]
clinical outcome ([1]; one month follow-up, same regimen): complete remission of ocular manifestations of CMV retinitis
ophthalmic examination outcome ([1]; two-week follow-up, 0.5% 1 drop four times daily in both eyes): reduction in hemorrhages around the retinal vessels and cotton wool spots

CC(C)(C)NC[C@H](O)COc1nsnc1N1CCOCC1 [Timolol]
intraocular pressure ([2]; after two weeks of Timolol 0.5% 1 drop two times daily, both eyes, baseline 32 mmHg, Goldmann tonometer): 28 mmHg
blood pressure ([2]; human, in vivo): 118/86
pulse rate ([2]; human, in vivo): 65 beats/min

CC12CC3CC(C)(C1)CC(N)(C3)C2.Cl [memantine, 1-amino-3,5-dimethyladamantane hydrochloride]
solubility [3]: 3.5%
apparent octanol/water partition coefficient (Log) [4]: 3.0
pKa [5]: 10.3
tissue distribution after topical dosing (autoradiography) ([6]; 0.74% aqueous isotonic solution pH 7.4, topical ophthalmic, sections 0.25-24 h post dosing): present in the posterior sclera, choroids and/or retina
half-life in the posterior globe (qualitative) ([6]; albino and pigmented rabbits, topical ophthalmic 0.74% solution): relatively long
binding to ocular melanin (autoradiography intensity in pigmented tissues) ([6]; pigmented tissues, topical ophthalmic 0.74% solution): bound to the ocular melanin
route of penetration from topical delivery (autoradiography) ([6]; topical delivery): trans-retinal route of penetration across the blood-retinal barrier
concentration at 7 days ([7]; 35 μl of a 0.1% aqueous solution, topical, 35 μl of 0.1% aqueous solution twice a day for 7 days): 107 ng/mL
concentration at 7 days ([7]; oral, 2 mg/kg for seven days): 108 ng/mL
binding to natural and synthetic melanin [8]: strongly bound

C[C@@H]1C/C=C/C=C/C=C/C=C/[C@H](O[C@@H]2O[C@H](C)[C@@H](O)[C@H](N)[C@@H]2O)C[C@@H]2O[C@](O)(C[C@@H](O)C[C@H]3O[C@@H]3/C=C/C(=O)O1)C[C@H](O)[C@H]2C(=O)O [natamycin]
clinical outcome [9]: symptoms have not improved
